# Measurements as given in article PMC7413254 (Nature Communications, 2020).
# Key:
# [1] = target: T1, PfCRT^Dd2 (Plasmodium falciparum, UniProt Q9N623, A220S/I356T/K76T/M74I/N326S/N75E/Q271E/R371I); assay: cell-based; format: cell-based; settings: for Uptake of [3H]CQ (% PfCRTDd2 control), trans-stimulation / PfCRT-mediated [3H]CQ transport, trans-stimulation (% PfCRTDd2 control): PfCRTDd2 oocytes; for Uptake of [3H]CQ (% PfCRTDd2 control), trans-stimulation: total [3H]CQ transport, normalised to the oocyte type control; for PfCRT-mediated [3H]CQ transport, trans-stimulation (% PfCRTDd2 control): normalised to oocyte type control; for [3H]CQ transport (% PfCRTDd2 control), trans-stimulation, PfCRTDd2: PfCRT-mediated component (background subtracted), mean ± SEM, SEM
# T1 sequence (Q9N623 whole entry A220S/I356T/K76T/M74I/N326S/N75E/Q271E/R371I): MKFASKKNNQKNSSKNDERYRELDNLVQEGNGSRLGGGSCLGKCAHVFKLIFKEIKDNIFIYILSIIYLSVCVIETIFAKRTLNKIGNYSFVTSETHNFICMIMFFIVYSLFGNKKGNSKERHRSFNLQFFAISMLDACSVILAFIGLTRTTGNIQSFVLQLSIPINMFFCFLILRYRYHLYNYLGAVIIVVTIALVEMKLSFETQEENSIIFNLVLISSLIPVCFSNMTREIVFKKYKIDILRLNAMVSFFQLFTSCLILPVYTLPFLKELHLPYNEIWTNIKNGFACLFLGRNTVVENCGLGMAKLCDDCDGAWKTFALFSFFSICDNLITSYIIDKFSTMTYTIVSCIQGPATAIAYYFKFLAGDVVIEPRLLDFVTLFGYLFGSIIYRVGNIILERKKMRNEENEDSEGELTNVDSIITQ
# Procedure, shortened: (§1)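 Oocytes (ten per treatment, ≥4 independent frogs/days) were preloaded by injecting VF-6 in 25 nL ND96 at pH 5.0, 5.5, 6.0 or 7.0, or Na^+-free choline buffer, then uptake run 1.5 h, 27.5 °C, ND96 pH 5.5 by default. Internal concentrations assumed ~400 nL oocyte volume.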
# [2] = target: T2, PfCRT^Ecu1110 (Plasmodium falciparum, UniProt Q9N623, A220S/I356L/K76T/N326D); assay: cell-based; format: cell-based; settings: for Uptake of [3H]CQ (% PfCRTEcu1110 control), trans-stimulation / PfCRT-mediated [3H]CQ transport, trans-stimulation (% PfCRTEcu1110 control): PfCRTEcu1110 oocytes; for Uptake of [3H]CQ (% PfCRTEcu1110 control), trans-stimulation: total [3H]CQ transport, normalised to the oocyte type control; for PfCRT-mediated [3H]CQ transport, trans-stimulation (% PfCRTEcu1110 control): normalised to oocyte type control; for [3H]CQ transport (% PfCRTDd2 control), trans-stimulation, PfCRTEcu1110: PfCRT-mediated component (background subtracted), sheet title says normalised to PfCRTDd2 control, mean ± SEM, SEM
# T2 sequence (Q9N623 whole entry A220S/I356L/K76T/N326D): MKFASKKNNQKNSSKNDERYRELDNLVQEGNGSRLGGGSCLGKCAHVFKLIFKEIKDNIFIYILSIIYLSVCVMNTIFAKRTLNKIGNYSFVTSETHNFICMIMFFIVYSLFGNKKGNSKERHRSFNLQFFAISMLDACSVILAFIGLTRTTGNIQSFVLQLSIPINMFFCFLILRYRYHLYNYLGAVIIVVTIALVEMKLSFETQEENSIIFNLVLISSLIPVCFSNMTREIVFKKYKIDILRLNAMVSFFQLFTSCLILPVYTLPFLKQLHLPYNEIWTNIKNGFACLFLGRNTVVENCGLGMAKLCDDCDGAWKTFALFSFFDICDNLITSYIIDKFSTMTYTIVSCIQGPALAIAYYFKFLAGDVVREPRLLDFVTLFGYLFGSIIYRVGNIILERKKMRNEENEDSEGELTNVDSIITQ
# Procedure, shortened: as §1
# [3] = target: T3, PfNT1 (Plasmodium falciparum, UniProt Q8IDM6); assay: cell-based; format: cell-based; settings: PfNT1 oocytes, total [3H]CQ transport, normalised to the oocyte type control
# T3 construct: expressed in transfected cells; host or cells: Xenopus laevis oocytes (stage V-VI), cRNA-injected
# T3 sequence (Q8IDM6 whole entry): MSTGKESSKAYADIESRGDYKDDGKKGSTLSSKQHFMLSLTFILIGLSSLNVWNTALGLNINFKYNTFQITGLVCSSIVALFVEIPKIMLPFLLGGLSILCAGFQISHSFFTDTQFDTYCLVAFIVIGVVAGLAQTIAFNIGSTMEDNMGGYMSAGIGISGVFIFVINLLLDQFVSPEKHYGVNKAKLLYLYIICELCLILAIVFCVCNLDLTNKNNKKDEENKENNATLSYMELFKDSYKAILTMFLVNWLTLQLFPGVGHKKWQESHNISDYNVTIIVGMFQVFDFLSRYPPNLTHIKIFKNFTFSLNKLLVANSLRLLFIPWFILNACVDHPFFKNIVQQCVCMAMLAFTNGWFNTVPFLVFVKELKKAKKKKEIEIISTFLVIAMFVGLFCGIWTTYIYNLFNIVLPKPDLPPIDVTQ
# Procedure, shortened: as §1
# [4] = target: T4, PfCRT^3D7 (Plasmodium falciparum, UniProt Q8IBZ9); assay: cell-based; format: cell-based; settings: PfCRT3D7 oocytes; for Uptake of [3H]CQ (% PfCRT3D7 control), trans-stimulation: total [3H]CQ transport, normalised to the oocyte type control; for PfCRT-mediated [3H]CQ transport, trans-stimulation (% PfCRT3D7 control): normalised to oocyte type control
# T4 sequence (Q8IBZ9 59-398): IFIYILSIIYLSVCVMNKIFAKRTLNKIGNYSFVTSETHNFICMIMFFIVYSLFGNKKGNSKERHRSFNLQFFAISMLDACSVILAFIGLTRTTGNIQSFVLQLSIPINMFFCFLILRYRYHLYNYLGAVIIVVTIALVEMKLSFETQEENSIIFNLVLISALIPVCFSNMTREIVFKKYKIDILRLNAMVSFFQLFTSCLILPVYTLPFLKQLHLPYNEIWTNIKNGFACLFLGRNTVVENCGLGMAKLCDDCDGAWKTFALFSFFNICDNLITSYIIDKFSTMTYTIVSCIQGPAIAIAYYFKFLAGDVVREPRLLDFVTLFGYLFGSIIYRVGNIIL
# Procedure, shortened: as §1
# [5] = system: non-expressing oocytes; format: cell-based, Xenopus laevis; settings: non-expressing oocytes; [test solute]i = 45 mM (30 mM for some solutes due to solubility); total [3H]CQ transport, normalised to the oocyte type control
# Procedure, shortened: as §1
# [6] = system: non-expressing oocytes; assay: cells; format: cell-based, Xenopus laevis; settings: non-expressing oocytes, total [3H]CQ transport, normalised to the oocyte type control
# Procedure, shortened: (§2)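 ND96, pH 5.5, 1.5 h, 27.5 °C; uptake direction acidic outside → oocyte cytosol, mimicking efflux from digestive vacuole. Ice-cold wash stop, 10% SDS lysis, scintillation counting. Ten oocytes/treatment, ≥4 independent experiments.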
# [7] = target: T4, PfCRT^3D7; assay: cell-based; format: cell-based; settings: PfCRT3D7 oocytes, total [3H]CQ transport, normalised to the oocyte type control
# Procedure, shortened: as §2
# [8] = target: T1, PfCRT^Dd2; assay: [3H]CQ uptake into Xenopus oocytes, cis-inhibition by unlabelled solute; format: cell-based; settings: PfCRTDd2 oocytes, background [3H]CQ accumulation subtracted, normalised to oocyte type control
# Procedure, shortened: as §2
# [9] = target: T2, PfCRT^Ecu1110; assay: as above; format: cell-based; settings: for Uptake of [3H]CQ (% PfCRTEcu1110 control), cis-inhibition / PfCRT-mediated [3H]CQ transport, cis-inhibition (% PfCRTEcu1110 control): PfCRTEcu1110 oocytes; for Uptake of [3H]CQ (% PfCRTEcu1110 control), cis-inhibition: total [3H]CQ transport, normalised to the oocyte type control; for PfCRT-mediated [3H]CQ transport, cis-inhibition (% PfCRTEcu1110 control): background [3H]CQ accumulation subtracted, normalised to oocyte type control; for [3H]CQ transport (% PfCRTEcu1110 control), cis-inhibition, PfCRTEcu1110: PfCRT-mediated component (background subtracted), sheet title says normalised to PfCRTDd2 control, mean ± SEM, SEM
# Procedure, shortened: as §2
# [10] = [test solute]i = 45 mM (30 mM for some solutes due to solubility)
# [11] = [test solute]i = 5 mM (intracellular)
# [12] = [test solute]i = 45 mM (intracellular; 30 mM for some solutes due to solubility)
# [13] = [test solute]i = 5 mM (injected)
substance,measurement,setting,value
PVQA [PA-4],"Uptake of [3H]CQ (% PfCRTDd2 control), trans-stimulation",[1]; [test solute]i = 5 mM,98 ± 2.2 % PfCRTDd2 control
same,"Uptake of [3H]CQ (% PfCRTDd2 control), trans-stimulation",[1]; [10],115 ± 1.1 % PfCRTDd2 control
same,"PfCRT-mediated [3H]CQ transport, trans-stimulation (% PfCRTDd2 control)",[1]; [11],96 ± 3.2 % PfCRTDd2 control
same,"PfCRT-mediated [3H]CQ transport, trans-stimulation (% PfCRTDd2 control)",[1]; [12],110 ± 0.9 % PfCRTDd2 control
same,"[3H]CQ transport (% PfCRTDd2 control), trans-stimulation, PfCRTDd2",[1]; [13],96 ± 3.2 % PfCRTDd2 control
same,"[3H]CQ transport (% PfCRTDd2 control), trans-stimulation, PfCRTDd2",[1]; [10],110 ± 0.9 % PfCRTDd2 control
same,"Uptake of [3H]CQ (% PfCRTEcu1110 control), trans-stimulation",[2]; [test solute]i = 5 mM,122 ± 3.0 % PfCRTEcu1110 control
same,"Uptake of [3H]CQ (% PfCRTEcu1110 control), trans-stimulation",[2]; [10],133 ± 3.5 % PfCRTEcu1110 control
same,"PfCRT-mediated [3H]CQ transport, trans-stimulation (% PfCRTEcu1110 control)",[2]; [11],117 ± 2.4 % PfCRTEcu1110 control
same,"PfCRT-mediated [3H]CQ transport, trans-stimulation (% PfCRTEcu1110 control)",[2]; [12],127 ± 1.9 % PfCRTEcu1110 control
same,"[3H]CQ transport (% PfCRTDd2 control), trans-stimulation, PfCRTEcu1110",[2]; [13],35 ± 1.3 % PfCRTEcu1110 control
same,"[3H]CQ transport (% PfCRTDd2 control), trans-stimulation, PfCRTEcu1110",[2]; [10],38 ± 1.1 % PfCRTEcu1110 control
same,"Uptake of [3H]CQ (% PfNT1 control), trans-stimulation",[3]; [test solute]i = 5 mM,96 ± 3.5 % PfNT1 control
same,"Uptake of [3H]CQ (% PfNT1 control), trans-stimulation",[3]; [10],98 ± 3.4 % PfNT1 control
same,"Uptake of [3H]CQ (% PfCRT3D7 control), trans-stimulation",[4]; [test solute]i = 5 mM,130 ± 4.2 % PfCRT3D7 control
same,"Uptake of [3H]CQ (% PfCRT3D7 control), trans-stimulation",[4]; [10],149 ± 5.8 % PfCRT3D7 control
same,"PfCRT-mediated [3H]CQ transport, trans-stimulation (% PfCRT3D7 control)",[4]; [11],124 ± 3.2 % PfCRT3D7 control
same,"PfCRT-mediated [3H]CQ transport, trans-stimulation (% PfCRT3D7 control)",[4]; [12],141 ± 4.0 % PfCRT3D7 control
same,"Uptake of [3H]CQ (% non-expressing oocyte control), trans-stimulation",[5],100 ± 2.6 % non-expressing oocyte control
same,"Uptake of [3H]CQ (% non-expressing oocyte control), cis-inhibition",[6]; [test solute] = 0.5 mM,98 ± 3.0 % non-expressing oocyte control
same,"Uptake of [3H]CQ (% non-expressing oocyte control), cis-inhibition",[6]; [test solute] = 1 mM,100 ± 4.7 % non-expressing oocyte control
same,"Uptake of [3H]CQ (% non-expressing oocyte control), cis-inhibition",[6]; [test solute] = 2 mM,98 ± 3.9 % non-expressing oocyte control
same,"Uptake of [3H]CQ (% PfCRT3D7 control), cis-inhibition",[7]; [test solute] = 0.5 mM,99 ± 5.3 % PfCRT3D7 control
same,"Uptake of [3H]CQ (% PfCRT3D7 control), cis-inhibition",[7]; [test solute] = 1 mM,99 ± 4.8 % PfCRT3D7 control
same,"Uptake of [3H]CQ (% PfCRT3D7 control), cis-inhibition",[7]; [test solute] = 2 mM,99 ± 5.7 % PfCRT3D7 control
same,"PfCRT-mediated [3H]CQ transport, cis-inhibition (% PfCRTDd2 control)",[8]; [test solute] = 0.5 mM,51 ± 3.0 % PfCRTDd2 control
same,"PfCRT-mediated [3H]CQ transport, cis-inhibition (% PfCRTDd2 control)",[8]; [test solute] = 1 mM,41 ± 2.9 % PfCRTDd2 control
same,"PfCRT-mediated [3H]CQ transport, cis-inhibition (% PfCRTDd2 control)",[8]; [test solute] = 2 mM,31 ± 1.2 % PfCRTDd2 control
same,"Uptake of [3H]CQ (% PfCRTEcu1110 control), cis-inhibition",[9]; [test solute] = 0.5 mM,65 ± 2.9 % PfCRTEcu1110 control
same,"Uptake of [3H]CQ (% PfCRTEcu1110 control), cis-inhibition",[9]; [test solute] = 1 mM,59 ± 3.6 % PfCRTEcu1110 control
same,"Uptake of [3H]CQ (% PfCRTEcu1110 control), cis-inhibition",[9]; [test solute] = 2 mM,43 ± 2.5 % PfCRTEcu1110 control
same,"PfCRT-mediated [3H]CQ transport, cis-inhibition (% PfCRTEcu1110 control)",[9]; [test solute] = 0.5 mM,61 ± 0.4 % PfCRTEcu1110 control
same,"PfCRT-mediated [3H]CQ transport, cis-inhibition (% PfCRTEcu1110 control)",[9]; [test solute] = 1 mM,52 ± 2.6 % PfCRTEcu1110 control
same,"PfCRT-mediated [3H]CQ transport, cis-inhibition (% PfCRTEcu1110 control)",[9]; [test solute] = 2 mM,39 ± 2.1 % PfCRTEcu1110 control
same,"[3H]CQ transport (% PfCRTEcu1110 control), cis-inhibition, PfCRTEcu1110",[9]; [test solute] = 1 mM,16 ± 0.1 % PfCRTEcu1110 control
same,"[3H]CQ transport (% PfCRTEcu1110 control), cis-inhibition, PfCRTEcu1110",[9]; [test solute] = 2 mM,12 ± 0.2 % PfCRTEcu1110 control
